Seven molecules from patent publication US5057523A, “Dipeptide quinolone derivatives” (Abbott Laboratories, priority 1989, dated 1991) can be followed below.

≈ marks a conversion by molar mass, not a printed value.

The test system of data set [1] is E. Coli Juhl. In words: Acute mouse protection test. In kind it is in vivo. The conditions noted are these: mice infected intraperitoneally with E. Coli JUHL, dosed at 1 and 5 hours post-infection.
For data set [2], the system named is PROVIDENCIA STUARTII CMX 640. In words: In vitro antibacterial activity, agar dilution MIC (BHIA). In kind it is cell-based. The conditions noted are these: BHI agar. Background: In agar dilution, organisms are placed on agar that contains the substance at set levels.
The next data set relates to P. Aeruginosa A5007. Put plainly: Acute mouse protection test. As to conditions: mice infected intraperitoneally with P. Aeruginosa A5007, dosed at 1 and 5 hours post-infection. In kind it is in vivo.
Data set [3] has as its system STREPTOCOCCUS PYOGENES EES61. Put plainly: In vitro antibacterial activity, agar dilution MIC (BHIA). Type of data set: cell-based. The conditions noted are these: BHI agar.
Data set [4] concerns ENTEROBACTER AEROGENES ATCC 13048. Described as above. Type of data set: cell-based. The conditions noted are these: BHI agar.
Data set [5] has as its system PSEUDOMONAS AERUGINOSA K799/61. The description is as above. The conditions noted are these: BHI agar. In kind it is cell-based.
Data set [6] has as its system ENTEROCOCCUS FAECIUM ATCC 8043. Described as above. Type of data set: cell-based. The conditions noted are these: BHI agar.
The test system of the next data set is ESCHERICHIA COLI H560. The data set is described as above. In kind it is cell-based. As to conditions: BHI agar. The source says:
(§1) The MIC results are in μg/ml.

For another data set, the system named is ESCHERICHIA COLI SS. The description is as above. Type of data set: cell-based. As to conditions: BHI agar.
Source text: as §1

Another data set relates to ESCHERICHIA COLI DC-2. The data set is described as above. In kind it is cell-based. As to conditions: BHI agar.
Source text: as §1

Data set [7] relates to STREPTOCOCCUS PYOGENES 2548 INDUC. The data set is described as above. Type of data set: cell-based. The conditions noted are these: BHI agar.
For the next data set, the system named is ESCHERICHIA COLI KNK 437. Described as above. The conditions noted are these: BHI agar. Type of data set: cell-based.
The test system of data set [8] is PSEUDOMONAS AERUGINOSA A5007. The data set is described as above. Type of data set: cell-based. As to conditions: BHI agar.
Another data set has as its system ACINETOBACTER SP CMX 669. The description is as above. In kind it is cell-based. As to conditions: BHI agar.
Data set [9] concerns PSEUDOMONAS AERUGINOSA BMH10. The description is as above. In kind it is cell-based. As to conditions: BHI agar.
Data set [10] concerns STREPTOCOCCUS PYOGENES 930 CONST. The data set is described as above. The conditions noted are these: BHI agar. In kind it is cell-based.
The subject of another data set is PSEUDOMONAS CEPACIA 2961. Described as above. As to conditions: BHI agar. Type of data set: cell-based.
For data set [11], the system named is STREPTOCOCCUS BOVIS A5169. Described as above. Type of data set: cell-based. As to conditions: BHI agar.
The subject of data set [12] is STREPTOCOCCUS AGALACTIAE CMX 508. Described as above. In kind it is cell-based. The conditions noted are these: BHI agar.
In data set [13] the test system is PSEUDOMONAS AERUGINOSA K799/WT. Described as above. Type of data set: cell-based. As to conditions: BHI agar.
For data set [14], the system named is MICROCOCCUS LUTEUS ATCC 4698. The description is as above. Type of data set: cell-based. As to conditions: BHI agar.
The subject of a further data set is Stap. Aureus NCTC 10649. Put plainly: Acute mouse protection test. In kind it is in vivo. As to conditions: mice infected intraperitoneally with Stap. Aureus NCTC 10649, dosed at 1 and 5 hours post-infection.
Data set [15] relates to KLEBSIELLA PNEUMONIAE ATCC 8045. In words: In vitro antibacterial activity, agar dilution MIC (BHIA). Type of data set: cell-based. As to conditions: BHI agar.
The subject of a further data set is ESCHERICHIA COLI JUHL. The description is as above. Type of data set: cell-based. The conditions noted are these: BHI agar.
For data set [16], the system named is MICROCOCCUS LUTEUS ATCC 9341. Described as above. In kind it is cell-based. As to conditions: BHI agar.
In data set [17] the test system is E. Coli Juhl. Put plainly: Second in vitro test, MIC in Brain Heart Infusion Broth (BHIB).
Method: (§2) The in vitro antibacterial activity of the test compounds was determined by conventional agar dilution procedures. The organisms were grown overnight in brain-heart infusion (BHI) broth (Difco 0037-01-6) at 36° C. Twofold dilutions of the stock solution (2000 mcg/mL) of the test compound were made in BHI agar to obtain a test concentration ranging from 200 to 0.005 mcg/mL. The plate was inoculated with approximately 10^4 organisms. It was then incubated at 36° C. for 18 h.
A further data set relates to Stap. Aureus CMX 553. The description is as above.
The next data set relates to Ps. Aeruginosa A5007. Described as above.
A further data set has as its system Strep pyogenes EES 61. Described as above.
Data set [18] can be described thus: Aqueous solubility (water and pH 7.4). As to conditions: the sign > refers to an approximate value, solubility may be within 10% higher.
Where [19] appears, read: STREPTOCOCCUS AGALACTIAE CMX 508.

Method for Ps. Aeruginosa A5007: as §2
Method for Stap. Aureus CMX 553: as §2
Method for Strep pyogenes EES 61: as §2

As usually defined, the MIC is the smallest concentration in the dilution series that meets the test's criterion for growth inhibition. Low values mean greater potency, high ones weaker potency. On to `Cl.NCC(=O)N[C@@H](Cc1ccccc1)C(=O)NC1CCN(c2nc3c(cc2F)c(=O)c(C(=O)O)cn3-c2ccc(F)cc2F)C1` (stereo partly drawn) [Example 1b, 7-[(3-Gly-L-Phe-amino)-1-pyrrolidinyl]-1-(2,4-difluorophenyl)-6-fluoro-1,4-dihydro-4-oxo-1,8-naphthyridine-3-carboxyli c acid hydrochloride], for which the “Oral (ED50)” value in the data set with E. Coli Juhl [1] is listed as 1.8 mg/kg/day; in the data set with P. Aeruginosa A5007, 27.3 mg/kg/day; in the data set with Stap. Aureus NCTC 10649, 0.7 mg/kg/day. The MIC was 100 µg/mL in data set [2]; 1.56 µg/mL in data set [3] (STR[…] EES61); 12.5 µg/mL in data set [4]; 12.5 µg/mL in [5]; 1.56 µg/mL in [6] (EN[…] ATCC 8043); 1.56 µg/mL against ESCHERICHIA COLI H560. Further, the MIC entry was “.2 µg/mL” in the data set with ESCHERICHIA COLI SS; 100 µg/mL with ESCHERICHIA COLI DC-2; “.78 µg/mL” in data set [7]; 25 µg/mL in the data set with ESCHERICHIA COLI KNK 437; 25 µg/mL in [8]; 12.5 µg/mL in the data set with ACINETOBACTER SP CMX 669. Also, the MIC in [9] is 25 µg/mL; in data set [10], “.78 µg/mL”; in the data set on PSEUDOMONAS CEPACIA 2961 it was 50 µg/mL; in data set [11] (STR[…] A5169) it was 1.56 µg/mL; in data set [12] (STR[…] 508), 1.56 µg/mL; in data set [13], 25 µg/mL. Also, the MIC result in data set [14] was “.78 µg/mL”; in data set [15] it was 12.5 µg/mL; in the data set on ESCHERICHIA COLI JUHL, 3.12 µg/mL; in data set [16], 6.25 µg/mL.

Regarding `CS(=O)(=O)CC[C@H](N)C(=O)NC1CCN(c2nc3c(cc2F)c(=O)c(C(=O)O)cn3-c2ccc(F)cc2F)C1.Cl` (stereo partly drawn) [Example 31c, 7-[3 L-Methioninesulfone Amino-1-Pyrrolidinyl]-1-(2,4-Difluorophenyl)-6-Fluoro-1,4-Dihydro-4-Oxo 1,8-Naphthyridine 3-Carboxylic Acid Hydrochloride], the “Oral (ED50)” value in the data set on E. Coli Juhl [1] was 1.8 mg/kg/day; in the data set with P. Aeruginosa A5007 it was 7.8 mg/kg/day; in the data set on Stap. Aureus NCTC 10649, 1.8 mg/kg/day. Further, the MIC in the data set on E. Coli Juhl [17] was 12.5 µg/mL; against Stap. Aureus CMX 553, 25 µg/mL; against Ps. Aeruginosa A5007, above 100 µg/mL; in the data set on Strep pyogenes EES 61 it was 25 µg/mL.

In the case of `CC(N)C(=O)NC(C)C(=O)NC1CCN(c2nc3c(cc2F)c(=O)c(C(=O)O)cn3-c2ccc(F)cc2F)C1` (centres unmarked) [Example 15], the “Oral (ED50)” value with E. Coli Juhl [1] is reported as 2.0 mg/kg/day; in the data set with P. Aeruginosa A5007, 9.1 mg/kg/day; in the data set on Stap. Aureus NCTC 10649, 1.3 mg/kg/day. Also, the MIC is 100 µg/mL (≈ 183 µM) in data set [2]; 25 µg/mL (≈ 45.7 µM) in data set [4]; 3.1 µg/mL (≈ 5.67 µM) in data set [5]; 50 µg/mL (≈ 91.5 µM) in [6] (ENTEROCOCCUS FAECIUM ATCC 8043); 6.2 µg/mL (≈ 11.3 µM) against ESCHERICHIA COLI H560; “.39 µg/mL” against ESCHERICHIA COLI SS. Further, the MIC with ESCHERICHIA COLI DC-2 turned out to be 100 µg/mL (≈ 183 µM); against ESCHERICHIA COLI KNK 437, 50 µg/mL (≈ 91.5 µM); in [8] it was 100 µg/mL (≈ 183 µM); in [9] it was 100 µg/mL (≈ 183 µM); in the data set on PSEUDOMONAS CEPACIA 2961, 50 µg/mL (≈ 91.5 µM); in data set [11] (STREPTOCOCCUS BOVIS A5169) it was 50 µg/mL (≈ 91.5 µM). In addition, the MIC in data set [13] was 50 µg/mL (≈ 91.5 µM); in data set [14] it was 100 µg/mL (≈ 183 µM); in [16], above 100 µg/mL.

`NC1CCN(c2nc3c(cc2F)c(=O)c(C(=O)O)cn3-c2ccc(F)cc2)C1` (centres unmarked) [compound A, 7-(3-amino-1-pyrrolidinyl)-6-fluoro-1-(4-fluorophenyl)-1,4-dihydro-4-oxo-1 ,8-naphthyridine-3-carboxylic acid, reference compound]: in data set [18], the “Water Solubility” value was determined as 1.4 mg/mL.

Consider `CCC[C@H](NC(=O)[C@H](C)N)C(=O)NC1CCN(c2nc3c(cc2F)c(=O)c(C(=O)O)cn3-c2ccc(F)cc2F)C1` (some centres unmarked) [Example 55b, 7-(3-Ala-Nval-amino-1-pyrrolidinyl)-6-fluoro-1-(2,4-difluorophenyl)-1,4-di hydro-4-oxo-1,8-naphthyridine-3-carboxylic acid], for which the “Water Solubility” value in data set [18] is 26 mg/mL.

For “7-[3-Norvaline-amino-1-pyrrolidinyl]-1-(2,4-difluoro-phenyl)- 6-fluoro-1,4-dihydro-4-oxo-1,8-naphthyridine-3-carboxylic acid hydrochloride [Example 2b]”, the MIC in [2] was 50 µg/mL; in data set [3] (STREPTOCOCCUS PYOGENES EES61), 1.56 µg/mL; in data set [4], 3.1 µg/mL; in data set [5] it was “.39 µg/mL”; in data set [6] (ENTEROCOCCUS FAECIUM ATCC 8043) it was “.78 µg/mL”; in the data set on ESCHERICHIA COLI H560, “.78 µg/mL”. Moreover, the MIC entry in the data set on ESCHERICHIA COLI SS was “.02 µg/mL”; in the data set on ESCHERICHIA COLI DC-2, 12.5 µg/mL; in [7], “.39 µg/mL”; against ESCHERICHIA COLI KNK 437 it was 6.2 µg/mL; in [8], 12.5 µg/mL; in the data set on ACINETOBACTER SP CMX 669, 3.1 µg/mL. For the same molecule, the MIC was 6.2 µg/mL in [9]; “.78 µg/mL” in data set [10]; 50 µg/mL in the data set with PSEUDOMONAS CEPACIA 2961; 1.56 µg/mL in data set [11] (STREPTOCOCCUS BOVIS A5169); 1.56 µg/mL in [12] (setting [19]); 6.2 µg/mL in data set [13]. Also, the MIC in data set [14] is 25 µg/mL; in data set [15], “.39 µg/mL”; against ESCHERICHIA COLI JUHL it was “.78 µg/mL”; in data set [16], 25 µg/mL.

With `NC(Cc1ccccc1)C(=O)NC1CCN(c2nc3c(cc2F)c(=O)c(C(=O)O)cn3-c2ccc(F)cc2F)C1` (centres unmarked) [Example 5], the entries for the “Oral (ED50)” value in the data set on E. Coli Juhl [1] and in the data set with Stap. Aureus NCTC 10649 were 3.5 mg/kg/day and 3.6 mg/kg/day, respectively. Besides, the MIC in [2] was above 100 µg/mL; in [3] (STREPTOCOCCUS PYOGENES EES61) it was 3.1 µg/mL (≈ 5.62 µM); in [6] (ENTEROCOCCUS FAECIUM ATCC 8043), 3.1 µg/mL (≈ 5.62 µM); with ESCHERICHIA COLI H560, 3.1 µg/mL (≈ 5.62 µM); with ESCHERICHIA COLI SS it was “.1 µg/mL”; against ESCHERICHIA COLI DC-2 it was 50 µg/mL (≈ 90.7 µM). Moreover, the MIC entry in data set [7] is “.78 µg/mL”; with ESCHERICHIA COLI KNK 437 it was 100 µg/mL (≈ 181 µM); in data set [8], 50 µg/mL (≈ 90.7 µM); in data set [9], 25 µg/mL (≈ 45.3 µM); against PSEUDOMONAS CEPACIA 2961, above 100 µg/mL; in [11] (STREPTOCOCCUS BOVIS A5169), 6.2 µg/mL (≈ 11.2 µM). For the same molecule, the MIC in [12] (setting [19]) came to 3.1 µg/mL (≈ 5.62 µM); in data set [13] it was 25 µg/mL (≈ 45.3 µM); against ESCHERICHIA COLI JUHL, 3.1 µg/mL (≈ 5.62 µM); in data set [16], 25 µg/mL (≈ 45.3 µM).
